# In patent US9962388B2, “Pyrrolopyrimidine compounds used as TLR7 agonist” (priority 2014, dated 2018):
# Experiments:
# [1] = test system: human peripheral blood mononuclear cells (PBMC); experiment: Peripheral blood mononuclear cell assay (cytokine induction, CBA); type: cell-based; settings: Homo sapiens, PBMC, 24 h, human PBMC, 24 h, Minimal Effective Concentration; read-out: INF-α MEC
# Experimental: Peripheral Blood Mononuclear Cell Assay The purpose of this example is to determine the expression level of cytokines 24 h after stimulation to human peripheral blood mononuclear cells (PBMC) with the compounds. The cell supernatant was assayed without dilution and the levels of IFN-α and TNF-α were directly determined. The compound was firstly formulated into 20 mM DMSO stock solution and was gradient diluted with cell medium in 10-fold with the total number of 11 diluting points. The compounds in 9 diluting points (the highest concentration was 200 μmol/L) were added into 96-well plate with 50 μL in each well. Fresh human peripheral blood mononuclear cells were inoculated, with 150 μL in each well containing 450,000 cells. The cell culture plate was incubated in an incubator at 37° C., 5% CO2 for 24 h. After incubation, the culture plate was centrifuged at 1200 rpm for 5 min and the supernatant was collected and stored at −20° C. for determination. The determination of cytokine was performed using Cytometric Bead Array (CBA) of BD-Pharmingen on flow cytometer. Using the above determining method, the lowest drug concentration stimulating cytokine level which is over 3 times greater than the lowest detectable limit was designated as the MEC (Minimal Effective Concentration) value in the cytokine stimulating test.
# Toll-like receptor 7 = Toll-like receptor 7 (Homo sapiens (Human), UniProt Q9NYK1); experiment: Toll-like receptor 7 in vitro receptor binding activity screen (HEK-blue hTLR7 cell, alkaline phosphatase/Quanti-Blue readout); type: cell-based; settings: HEK-blue hTLR7 cell, 24 h; read-out: TLR7 EC50
# Toll-like receptor 7, sequence (Q9NYK1 27-1049): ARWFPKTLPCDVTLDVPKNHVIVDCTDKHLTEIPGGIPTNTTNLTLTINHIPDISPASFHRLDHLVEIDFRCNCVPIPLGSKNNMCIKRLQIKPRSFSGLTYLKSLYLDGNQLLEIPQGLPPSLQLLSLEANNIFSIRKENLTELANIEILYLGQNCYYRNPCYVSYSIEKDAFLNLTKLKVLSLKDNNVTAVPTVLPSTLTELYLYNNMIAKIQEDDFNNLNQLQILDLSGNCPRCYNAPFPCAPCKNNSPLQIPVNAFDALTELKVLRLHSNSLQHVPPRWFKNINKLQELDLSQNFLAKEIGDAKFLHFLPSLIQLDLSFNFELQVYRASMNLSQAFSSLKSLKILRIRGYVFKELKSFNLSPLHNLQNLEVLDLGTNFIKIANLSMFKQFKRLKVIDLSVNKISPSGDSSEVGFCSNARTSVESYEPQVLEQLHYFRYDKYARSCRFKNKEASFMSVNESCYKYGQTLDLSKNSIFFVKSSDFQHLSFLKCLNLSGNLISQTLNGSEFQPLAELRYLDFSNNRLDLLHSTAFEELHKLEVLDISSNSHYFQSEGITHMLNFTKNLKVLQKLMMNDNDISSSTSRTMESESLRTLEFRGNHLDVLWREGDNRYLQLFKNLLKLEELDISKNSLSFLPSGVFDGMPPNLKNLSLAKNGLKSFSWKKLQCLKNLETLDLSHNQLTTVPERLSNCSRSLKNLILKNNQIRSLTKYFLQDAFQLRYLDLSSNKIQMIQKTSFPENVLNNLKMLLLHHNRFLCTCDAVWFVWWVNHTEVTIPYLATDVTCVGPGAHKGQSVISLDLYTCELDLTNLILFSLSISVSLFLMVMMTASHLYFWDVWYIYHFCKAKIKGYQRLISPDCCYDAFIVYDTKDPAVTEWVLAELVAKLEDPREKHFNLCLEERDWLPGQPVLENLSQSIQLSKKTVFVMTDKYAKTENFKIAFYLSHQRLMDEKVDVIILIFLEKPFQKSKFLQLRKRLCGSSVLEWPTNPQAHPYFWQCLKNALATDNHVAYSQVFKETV
# Experimental: Toll-Like Receptor 7 and Toll-Like Receptor 8 In Vitro Receptor Binding Activity Screen
# HEK-blue hTLR7 cell and HEK-blue hTLR8 cell (available from InvivoGen)
# 1. Preparation of 96-well compound plate:
# The compounds were gradient diluted with DMSO in 3-fold using liquid work station POD starting at a concentration of 10 mmol/L and 10 points were diluted (2nd column to 11th column, and each point was duplicated). At 12th column, 1 μL of 5 mg/mL positive compound R848 was added as positive control; and at 1st column, 1 μL of DMSO was added as negative control. Each well contained 1 μL of DMSO.
# 2. The cells in culture flask were collected and the cell density was diluted to 250,000 cells/mL.
# 3. 200 μL (50,000 cells/well) of cell suspension was added into prepared compound plate and the final concentration of DMSO in each well was 0.5%.
# 4. The culture plates containing cells and the compounds were incubated in CO2 incubator for 24 h at 37° C., 5% CO2.
# 5. After 24 h incubation, 20 μL of supernatant was removed from each well to a 96-well transparent assay plate. To each well of the assay plate was added 180 μL of Quanti-Blue reagent and the plate was incubated in an incubator at 37° C., 5% CO2 for 1 h.
# 6. After 1 h, the content of alkaline phosphatase in 20 μL of supernatant was determined using Microplate Reader OD650.
# 7. EC50 of each compound was obtained with Prism software.
Structure (SMILES),minimal effective concentration [1] [µM],EC50 (Toll-like receptor 7) [µM]
"CCCCOc1nc(N)c2[nH]cc(Cc3cccc(CN4CCCC4)c3)c2n1 [Example 4, 2-butoxy-7-(3-(pyrrolidine-1-ylmethyl)benzyl)-5H-pyrrolo[3,2-d]pyrimidine-4-amine]",0.01 to 100,0.1 to 1
"CCCCOc1nc(N)c2[nH]cc(Cc3ccc(CN4CCC(OC)CC4)cc3)c2n1 [Example 19, 2-butoxy-7-(4-((4-methoxylpiperidine-1-yl)methyl)benzyl)-5H-pyrrolo[3,2-d]pyrimidine-4-amine]",–,0.1 to 1
"CCCCOc1nc(N)c2[nH]cc(Cc3ccc(CN4CCN(C(C)C)CC4)cc3)c2n1 [Example 20, 2-butoxy-7-(4-((4-isopropylpiperazine-1-yl)methyl)benzyl)-5H-pyrrolo[3,2-d]pyrimidine-4-amine]",–,0.1 to 1
"CCCCOc1nc(N)c2[nH]cc(Cc3ccc(CN4CCCC4)nc3)c2n1 [Example 22, 2-butoxy-7-((6-(pyrrolidine-1-ylmethyl)pyridine-3-yl)methyl)-5H-pyrrolo[3,2-d]pyrimidine-4-amine]",0.001 to 0.01,0.1 to 1
"CCCCOc1nc(N)c2[nH]cc(Cc3cccc(CCN4CCCC4)c3)c2n1 [Example 23, 2-butoxy-7-(3-(2-(pyrrolidine-1-yl)ethyl)benzyl)-5H-pyrrolo[3,2-d]pyrimidine-4-amine]",–,1 to 50
"CCCCOc1nc(N)c2[nH]cc(Cc3ccc(C(C)N4CCCC4)cc3)c2n1 (stereo not shown) [Example 24, 2-butoxy-7-(4-(1-(pyrrolidine-1-yl)ethyl)benzyl)-5H-pyrrolo[3,2-d]pyrimidine-4-amine]",–,0.1 to 1
"CCCCOc1nc(N)c2[nH]cc(Cc3ccc(C4CCN(C)CC4)cc3)c2n1 [Example 25, 2-butoxy-7-(4-(1-methylpiperidine-4-yl)benzyl)-5H-pyrrolo[3,2-d]pyrimidine-4-amine]",–,0.001 to 0.1
"CCCCOc1nc(N)c2[nH]cc(Cc3ccc(C4CCCN4C)cc3)c2n1 (stereo not shown) [Example 26, 2-butoxy-7-(4-(1-methylpyrrolidine-2-yl)benzyl)-5H-pyrrolo[3,2-d]pyrimidine-4-amine]",–,0.1 to 1
"CCCCOc1nc(N)c2[nH]cc(Cc3ccc(N4CCN(C)CC4=O)cc3)c2n1 [Example 27, 1-(4-((4-amino-2-butoxy-5H-pyrrolo[3,2-d]pyrimidine-7-yl)methyl)phenyl)-4-methylpiperazine-2-one]",–,0.1 to 1
"CCCCOc1nc(N)c2[nH]cc(Cc3ccc4c(c3)CNCC4)c2n1 [Example 28, 2-butoxy-7-((1,2,3,4-tetrahydroisoquinoline-7-yl)methyl)-5H-pyrrolo[3,2-d]pyrimidine-4-amine]",0.001 to 0.01,0.1 to 1
"CCCCOc1nc(N)c2[nH]cc(Cc3ccc4c(c3)CN(C)CC4)c2n1 [Example 29, 2-butoxy-7-((2-methyl-1,2,3,4-tetrahydroisoquinoline-7-yl)methyl)-5H-pyrrolo[3,2-d]pyrimidine-4-amine]",1e-05 to 0.001,0.1 to 1
"CCCCOc1nc(N)c2[nH]cc(Cc3ccc4c(c3)CN(CC)CC4)c2n1 [Example 30, 2-butoxy-7-((2-ethyl-1,2,3,4-tetrahydroisoquinoline-7-yl)methyl)-5H-pyrrolo[3,2-d]pyrimidine-4-amine]",0.001 to 0.01,0.1 to 1
"CCCCOc1nc(N)c2[nH]cc(Cc3ccc4c(c3)CN(C(C)C)CC4)c2n1 [Example 31, 2-butoxy-7-((2-isopropyl-1,2,3,4-tetrahydroisoquinoline-7-yl)methyl)-5H-pyrrolo[3,2-d]pyrimidine-4-amine]",0.001 to 0.01,0.1 to 1
"CCCCOc1nc(N)c2[nH]cc(Cc3ccc4c(c3)CCNC4)c2n1 [Example 32, 2-butoxy-7-((1,2,3,4-tetrahydroisoquinoline-6-yl)methyl)-5H-pyrrolo[3,2-d]pyrimidine-4-amine]",–,0.1 to 1
"CCCCOc1nc(N)c2[nH]cc(Cc3ccc4c(c3)CCN(C)C4)c2n1 [Example 33, 2-butoxy-7-((2-methyl-1,2,3,4-tetrahydroisoquinoline-6-yl)methyl)-5H-pyrrolo[3,2-d]pyrimidine-4-amine]",–,0.1 to 1
"CCCCOc1nc(N)c2[nH]cc(Cc3ccc4c(c3)CCN(CC)C4)c2n1 [Example 34, 2-butoxy-7-((2-ethyl-1,2,3,4-tetrahydroisoquinoline-6-yl)methyl)-5H-pyrrolo[3,2-d]pyrimidine-4-amine]",–,0.1 to 1
"COCCOc1nc(N)c2[nH]cc(Cc3ccccc3)c2n1 [Example 35, 7-benzyl-2-(2-methoxylethoxyl)-5H-pyrrolo[3,2-d]pyrimidine-4-amine]",–,1 to 50
"COCCOc1nc(N)c2[nH]cc(Cc3ccc(C)nc3)c2n1 [Example 36, 2-(2-methoxylethoxyl)-7-((6-methylpyridine-3-yl)methyl)-5H-pyrrolo[3,2-d]pyrimidine-4-amine]",–,1 to 50
"COCCOc1nc(N)c2[nH]cc(Cc3ccc(Cl)cn3)c2n1 [Example 37, 7-((5-chloropyridine-2-yl)methyl)-2-(2-methoxylethoxyl)-5H-pyrrolo[3,2-d]pyrimidine-4-amine]",–,1 to 50
"COCCOc1nc(N)c2[nH]cc(Cc3ccc(CN4CCCC4)nc3)c2n1 [Example 38, 2-(2-methoxylethoxyl-)-7-((6-(pyrrolidine-1-ylmethyl)pyridine-3-yl)methyl)-5H-pyrrolo[3,2-d]pyrimidine-4-amine]",–,0.1 to 1
"COCCOc1nc(N)c2[nH]cc(Cc3ccc(N4CCN(C)CC4=O)cc3)c2n1 [Example 39, 1-(4-((4-amino-2-(2-methoxylethoxyl)-5H-pyrrolo[3,2-d]pyrimidine-7-yl)methyl)phenyl)-4-methylpiperazine-2-one]",–,0.1 to 1
"CCCCOc1nc(N)c2[nH]cc(Cc3ccc(CN4CCCC4)cn3)c2n1 [Example 40, 2-butoxy-7-((5-(pyrrolidine-1-ylmethyl)pyridine-2-yl)methyl)-5H-pyrrolo[3,2-d]pyrimidine-4-amine]",–,0.1 to 1
"CCCCOc1nc(N)c2[nH]c(C#N)c(Cc3ccc(CN4CCCC4)nc3)c2n1 [Example 41, 4-amino-2-butoxy-7-((6-(pyrrolidine-1-ylmethyl)pyridine-3-yl)methyl)-5H-pyrrolo[3,2-d]pyrimidine-6-carbonitrile]",–,0.001 to 0.1
"CCCCOc1nc(N)c2[nH]c(C#N)c(Cc3ccc(CN4CCCC4)cc3)c2n1 [Example 42, 4-amino-2-butoxy-7-(4-(pyrrolidine-1-ylmethyl)benzyl)-5H-pyrrolo[3,2-d]pyrimidine-6-carbonitrile]",1e-05 to 0.001,0.001 to 0.1
"CCCCOc1nc(N)c2[nH]c(C#N)c(Cc3ccc(CN4CCOCC4)cc3)c2n1 [Example 43, 4-amino-2-butoxy-7-(4-(morpholinomethyl)benzyl)-5H-pyrrolo[3,2-d]pyrimidine-6-carbonitrile]",–,0.001 to 0.1
"CCCCOc1nc(N)c2[nH]c(C#N)c(Cc3ccc(CN4CCN(C)CC4)cc3)c2n1 [Example 44, 4-amino-2-butoxy-7-(4-((4-methylpiperazine-1-yl)methyl)benzyl)-5H-pyrrolo[3,2-d]pyrimidine-6-carbonitrile]",–,0.001 to 0.1
"CCCCOc1nc(N)c2[nH]c(C(N)=O)c(Cc3ccc(CN4CCCC4)cc3)c2n1 [Example 45, 4-amino-2-butoxy-7-(4-(pyrrolidine-1-ylmethyl)benzyl)-5H-pyrrolo[3,2-d]pyrimidine-6-formamide]",–,0.1 to 1
